Measured values reported in patent publication US20250032623A1, “HETEROBIFUNCTIONAL COMPOUNDS AND THEIR USE IN TREATING DISEASE” (HALDA THERAPEUTICS OPCO, INC., priority 2021, published 2025).
pKd: −log10 of the molar value. Read-outs that look alike come from different tables or passages of the source.

Legend:
[1] = test system: HEK293 cells; experiment: Cellular growth inhibition assay (CellTiter-Glo), HEK293 cells; format: cell-based; conditions: three days compound treatment, CellTiter-Glo 2.0, read-out: CTG HEK293 GI50
Procedure, shortened: (§1)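 HEK293 or HeLa cells seeded at 500 cells/well in DMEM with 10% FBS, treated after 24 h with titrated compound for three days at 37 °C, 5% CO2. CellTiter-Glo 2.0 luminescence read on Day 0 and Day 3, normalized to DMSO, four-parameter fit giving GI50.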

[2] = test system: HeLa cells; experiment: Cellular growth inhibition assay (CellTiter-Glo), HeLa cells; format: cell-based; conditions: three days compound treatment, CellTiter-Glo 2.0, read-out: CTG HELA GI50
Procedure, shortened: as §1

[3] = target: T1, EGFR (Homo sapiens, UniProt P00533); experiment: KdELECT binding assay, EGFR
T1 construct: purchased
Protocol: Exemplary compounds were tested for ability to bind to EGFR.
(§2) Compounds were tested using a KdELECT assay. Kinase-tagged T7 phage strains were prepared in an E. coli host derived from the BL21 strain. E. coli were grown to log-phase and infected with T7 phage and incubated with shaking at 32° C. until lysis. The lysates were centrifuged and filtered to remove cell debris. The remaining kinases were produced in HEK-293 cells and subsequently tagged with DNA for qPCR detection. Streptavidin-coated magnetic beads were treated with biotinylated small molecule ligands for 30 minutes at room temperature to generate affinity resins for kinase assays. The liganded beads were blocked with excess biotin and washed with blocking buffer (SeaBlock (Pierce), 1% BSA, 0.05% Tween 20, 1 mM DTT) to remove unbound ligand and to reduce non-specific binding. Binding reactions were assembled by combining kinases, liganded affinity beads, and test compounds in 1× binding buffer (20% SeaBlock, 0.17×PBS, 0.05% Tween 20, 6 mM DTT). Test compounds were prepared as 111× stocks in 100% DMSO. Kd values were determined using an 11-point 3-fold compound dilution series with three DMSO control points. All compounds for Kd measurements are distributed by acoustic transfer (non-contact dispensing) in 100% DMSO. The compounds were then diluted directly into the assays such that the final concentration of DMSO was 0.9%. All reactions performed in polypropylene 384-well plate. Each was a final volume of 0.02 mL. The assay plates were incubated at room temperature with shaking for 1 hour and the affinity beads were washed with wash buffer (1× PBS, 0.05% Tween 20). The beads were then re-suspended in elution buffer (1× PBS, 0.05% Tween 20, 0.5 μM nonbiotinylated affinity ligand) and incubated at room temperature with shaking for 30 minutes. The kinase concentration in the eluates was measured by qPCR.

[4] = target: T2, EGFR T790M, L858R (amino acids 669-1011 Accession Number NP_005219.2) (Homo sapiens, UniProt P00533, L858R/T790M); experiment: KdELECT binding assay (Eurofins Discovery), EGFR T790M, L858R; conditions: read-out: EGFR DM Kd
T2 construct: purchased Eurofins Discovery; host or cells: mammalian cells (HEK-293)
Protocol: (§3) Exemplary compounds were tested for ability to bind to EGFR WT (amino acids 669-1011, Accession Number NP_005219.2) or EGFR T790M, L858R (amino acids 669-1011 Accession Number NP_005219.2) expressed from bacteria or mammalian cells, respectively. Compounds were tested using the KdELECT assay at Eurofins Discovery.
as §2, with “Kinase-tagged” for “Compounds were tested using a KdELECT assay. Kinase-tagged”

[5] = target: T3, EGFR WT (amino acids 669-1011, Accession Number NP_005219.2) (Homo sapiens, UniProt P00533); experiment: KdELECT binding assay (Eurofins Discovery), EGFR WT
T3 construct: purchased Eurofins Discovery; host or cells: bacteria (E. coli, BL21-derived, T7 phage)
Protocol: as §3
as §2, with “Kinase-tagged” for “Compounds were tested using a KdELECT assay. Kinase-tagged”

T2 sequence (P00533 669-1011 T790M/L858R): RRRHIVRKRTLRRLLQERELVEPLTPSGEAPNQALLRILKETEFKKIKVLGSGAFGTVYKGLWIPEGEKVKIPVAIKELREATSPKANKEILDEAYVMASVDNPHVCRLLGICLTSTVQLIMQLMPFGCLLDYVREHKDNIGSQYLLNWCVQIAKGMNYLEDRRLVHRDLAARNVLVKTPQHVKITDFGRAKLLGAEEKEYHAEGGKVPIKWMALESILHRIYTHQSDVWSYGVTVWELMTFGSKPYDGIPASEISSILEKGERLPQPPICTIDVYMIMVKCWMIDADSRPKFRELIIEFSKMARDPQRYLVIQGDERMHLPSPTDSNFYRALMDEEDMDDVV
T1 sequence (P00533 25-1210): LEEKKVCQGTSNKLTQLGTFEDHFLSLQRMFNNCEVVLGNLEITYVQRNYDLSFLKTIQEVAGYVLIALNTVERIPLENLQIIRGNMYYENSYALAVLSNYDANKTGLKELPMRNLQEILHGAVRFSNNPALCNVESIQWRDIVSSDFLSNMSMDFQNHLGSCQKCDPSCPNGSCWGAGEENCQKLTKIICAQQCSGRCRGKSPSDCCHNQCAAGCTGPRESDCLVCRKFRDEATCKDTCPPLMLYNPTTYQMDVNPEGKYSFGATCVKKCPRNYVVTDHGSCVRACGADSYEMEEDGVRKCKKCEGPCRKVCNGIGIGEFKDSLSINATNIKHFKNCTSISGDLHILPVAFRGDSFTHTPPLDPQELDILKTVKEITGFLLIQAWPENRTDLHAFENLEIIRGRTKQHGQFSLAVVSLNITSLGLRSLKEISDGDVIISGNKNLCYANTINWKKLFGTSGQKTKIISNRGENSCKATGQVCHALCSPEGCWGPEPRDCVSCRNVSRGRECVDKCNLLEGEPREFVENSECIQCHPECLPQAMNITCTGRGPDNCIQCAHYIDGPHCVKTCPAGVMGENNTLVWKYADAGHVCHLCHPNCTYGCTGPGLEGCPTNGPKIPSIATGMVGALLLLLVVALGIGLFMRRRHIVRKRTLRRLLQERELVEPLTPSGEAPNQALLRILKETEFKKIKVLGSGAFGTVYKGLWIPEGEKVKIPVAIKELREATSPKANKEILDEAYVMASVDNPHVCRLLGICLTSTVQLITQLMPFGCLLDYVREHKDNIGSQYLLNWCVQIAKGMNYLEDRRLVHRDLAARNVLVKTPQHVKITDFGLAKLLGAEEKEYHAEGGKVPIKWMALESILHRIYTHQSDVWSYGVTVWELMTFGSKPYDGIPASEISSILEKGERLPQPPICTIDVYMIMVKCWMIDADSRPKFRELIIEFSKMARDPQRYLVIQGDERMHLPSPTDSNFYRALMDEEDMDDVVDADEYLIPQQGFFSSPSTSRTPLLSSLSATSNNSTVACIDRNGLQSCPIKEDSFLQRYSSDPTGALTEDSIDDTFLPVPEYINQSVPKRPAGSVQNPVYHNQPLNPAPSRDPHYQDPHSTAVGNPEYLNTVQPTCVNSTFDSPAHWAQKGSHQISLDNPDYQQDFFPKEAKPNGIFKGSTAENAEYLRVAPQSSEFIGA
T3 sequence (P00533 669-1011): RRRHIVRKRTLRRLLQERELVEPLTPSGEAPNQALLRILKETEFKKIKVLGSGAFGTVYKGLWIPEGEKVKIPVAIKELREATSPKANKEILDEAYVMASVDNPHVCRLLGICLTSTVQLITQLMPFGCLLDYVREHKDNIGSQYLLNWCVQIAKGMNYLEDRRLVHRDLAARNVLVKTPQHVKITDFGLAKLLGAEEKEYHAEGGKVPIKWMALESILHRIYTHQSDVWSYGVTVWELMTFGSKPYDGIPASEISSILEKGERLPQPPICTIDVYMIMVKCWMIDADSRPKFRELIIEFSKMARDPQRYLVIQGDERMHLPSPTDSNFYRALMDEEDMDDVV

| Compound | GI50 ([1]; Homo sapiens, 72 h) [nM] | GI50 ([2]; Homo sapiens, 72 h) [nM] | pKd [3] | pKd [4] | pKd [5] | GI50 [1] [nM] | GI50 [2] [nM] |
| --- | --- | --- | --- | --- | --- | --- | --- |
| C=CC(=O)N[C@@H]1CN(c2nc(Nc3cn(CCCCNS(=O)(=O)c4ccc(Nc5ncc(Br)c(Nc6cccc(F)c6C(N)=O)n5)cc4)nc3OC)c3ncn(C)c3n2)CC1F (stereo partly drawn) [Compound I-150, 2-[[5-bromo-2-[4-[4-[4-[[2-[(4R)-3-fluoro-4-(prop-2-enoylamino)pyrrolidin-1-yl]-9-methyl-purin-6-yl]amino]-3-methoxy-pyrazol-1-yl]butylsulfamoyl]anilino]pyrimidin-4-yl]amino]-6-fluoro-benzamide] | 500 to 1500 | > 5000 | > 7.30 | > 7.30 | > 7.30 |  |  |
| CCC1C(=O)N(C)c2cnc(Nc3ccc(C(=O)NCCOCCOCCOCCOCCN(C)CC=CC(=O)NC4CN(c5nc(Nc6cn(C)nc6OC)c6ncn(C)c6n5)CC4F)cc3OC)nc2N1C1CCCC1 [Compound I-126, 4-[[(7R)-8-cyclopentyl-7-ethyl-5-methyl-6-oxo-7H-pteridin-2-yl]amino]-N-[2-[2-[2-[2-[2-[[(E)-4-[ [(3R,4R)-4-fluoro-1-1[6-1[(3-methoxy-1-methyl-pyrazol-4-yl)amino]-9-methyl-purin-2-yl]pyrrolidin-3-yl]amino]-4-oxo-but-2-enyl]-methyl-amino]ethoxy]ethoxy]ethoxy]ethoxy]ethyl]-3-methoxy-benzamide] | < 500 | 500 to 1500 | 5.60 to 6.30 | 6.30 to 7.30 | 5.60 to 6.30 |  |  |
| C=CC(=O)N[C@@H]1CN(c2nc(Nc3cn(CCCN4CCN(CCCNC(=O)c5ccc(Nc6ncc7c(n6)N(C6CCCC6)[C@H](CC)C(=O)N7C)c(OC)c5)CC4)nc3OC)c3ncn(C)c3n2)C[C@H]1F [Compound I-136, 4-[[(7R)-8-cyclopentyl-7-ethyl-5-methyl-6-oxo-7H-pteridin-2-yl]amino]-N-[3-[4-[3-[4-[[2-[(3R,4R)-3-fluoro-4-(prop-2-enoylamino)pyrrolidin-1-yl]-9-methyl-purin-6-yl]amino]-3-methoxy-pyrazol-1-yl]propyl]piperazin-1-yl]propyl]-3-methoxy-benzamide] | 500 to 1500 | < 500 | > 7.30 | > 7.30 | > 7.30 |  |  |
| C=CC(=O)Nc1cc(Nc2nccc(-c3cn(C)c4ccccc34)n2)c(OC)cc1N(C)CCN(C)CCCN1CCN(CCCNC(=O)c2ccc(Nc3ncc4c(n3)N(C3CCCC3)[C@H](CC)C(=O)N4C)c(OC)c2)CC1 [Compound I-122, 4-[(8-cyclopentyl-7-ethyl-5-methyl-6-oxo-7H-pteridin-2-yl)amino]-3-methoxy-N-[3-[4-[3-[2-[5-methoxy-N-methyl-4-[[4-(1-methylindol-3-yl)pyrimidin-2-yl]amino]-2-(prop-2-enoylamino)anilino]ethyl-methyl-amino]propyl]piperazin-1-yl]propyl]benzamide] | 1500 to 5000 | 1500 to 5000 | 6.30 to 7.30 | > 7.30 | 5.60 to 6.30 |  |  |
| C=CC(=O)N[C@@H]1CN(c2nc(Nc3cn(CCOCCOCCOCCOCCOCCOCCOc4ccc(CNc5cc(N6CCCC[C@@H]6CCO)nc6c(CC)cnn56)cn4)nc3OC)c3ncn(C)c3n2)C[C@H]1F [Compound I-140, N—[(3R,4R)-1-[6-[[1-[2-[2-[2-[2-[2-[2-[2-[[5-111[[[3-ethyl-5-[(2R)-2-(2-hydroxyethyl)-1-piperidyl]pyrazolo[1,5-a]pyrimidin-7-yl]amino]methyl]-2-pyridyl]oxy]ethoxy]ethoxy]ethoxy]ethoxy]ethoxy]ethoxy]ethyl]-3-methoxy-pyrazol-4-yl]amino]-9-methyl-purin-2-yl]-4-fluoro-pyrrolidin-3-yl]prop-2-enamide] |  |  | 6.30 to 7.30 | > 7.30 | 6.30 to 7.30 | < 500 | < 500 |
| C=CC(=O)N[C@@H]1CN(c2nc(Nc3cn(CCCON(C)C(=O)N4N=C(c5cc(F)ccc5F)S[C@@]4(CCCN)c4ccccc4)nc3OC)c3ncn(C)c3n2)C[C@H]1F [Compound I-135, (2S)-2-(3-aminopropyl)-5-(2,5-difluorophenyl)-N-[3-[4-[[2-[(3R,4R)-3-fluoro-4-(prop-2-enoylamino)pyrrolidin-1-yl]-9-methyl-purin-6-yl]amino]-3-methoxy-pyrazol-1-yl]propoxy]-N-methyl-2-phenyl-1,3,4-thiadiazole-3-carboxamide] | > 5000 | > 5000 | > 7.30 | > 7.30 | > 7.30 |  |  |
| C=CC(=O)Nc1cc(Nc2nccc(-c3cn(C)c4ccccc34)n2)c(OC)cc1N(C)CCN(C)CCCON(C)C(=O)N1N=C(c2cc(F)ccc2F)S[C@@]1(CCCN)c1ccccc1 [Compound I-130, (2S)-2-(3-aminopropyl)-5-(2,5-difluorophenyl)-N-[3-[2-[5-methoxy-N-methyl-4-[[4-(1-methylindol-3-yl)pyrimidin-2-yl]amino]-2-(prop-2-enoylamino)anilino]ethyl-methyl-amino]propoxy]-N-methyl-2-phenyl-1,3,4-thiadiazole-3-carboxamide] | 500 to 1500 | 500 to 1500 | 5.60 to 6.30 | > 7.30 | 5.60 to 6.30 |  |  |
| C=CC(=O)Nc1cc(Nc2nccc(-c3cn(C)c4ccccc34)n2)c(OC)cc1N(C)CCN(C)CCOCCON(C)C(=O)N1N=C(c2cc(F)ccc2F)S[C@@]1(CCCN)c1ccccc1 [Compound I-127, (2S)-2-(3-aminopropyl)-5-(2,5-difluorophenyl)-N-[2-[2-[2-[5-methoxy-N-methyl-4-[[4-(1-methylindol-3-yl)pyrimidin-2-yl]amino]-2-(prop-2-enoylamino)anilino]ethyl-methyl-amino]ethoxy]ethoxy]-N-methyl-2-phenyl-1,3,4-thiadiazole-3-carboxamide] | 500 to 1500 | 1500 to 5000 | 6.30 to 7.30 | > 7.30 | 6.30 to 7.30 |  |  |
| C=CC(=O)Nc1cc(Nc2nccc(-c3cn(C)c4ccccc34)n2)c(OC)cc1N(C)CCN(C)CCOCCOCCOCCOCCOCCOCCOc1ccc(CNc2cc(N3CCCC[C@H]3CCO)nc3c(CC)cnn23)cn1 [Compound I-133] | < 500 | < 500 | 5.60 to 6.30 | > 7.30 | 5.60 to 6.30 |  |  |
| C=CC(=O)Nc1cc(Nc2nccc(-c3cn(C)c4ccccc34)n2)c(OC)cc1N(C)CCN(C)CCOCCOCCOc1ccc(CNc2cc(N3CCCC[C@H]3CCO)nc3c(CC)cnn23)cn1 [Compound I-141, N-[2-[2-[2-[2-[2-[[5-[[[3-ethyl-5-[(2S)-2-(2-hydroxyethyl)-1-piperidyl]pyrazolo[1,5-a]pyrimidin-7-yl]amino]methyl]-2-pyridyl]oxy]ethoxy]ethoxy]ethyl-methyl-amino]ethyl-methyl-amino]-4-methoxy-5-[[4-(1-methylindol-3-yl)pyrimidin-2-yl]amino]phenyl]prop-2-enamide] | < 500 | < 500 | 6.30 to 7.30 | > 7.30 | 6.30 to 7.30 |  |  |
